Consider twelve compounds from patent US5561113A, “New pseudopeptide compounds of neurokinins” (priority 1994, dated 1996).

One data set deals with T1, human receptors NK1 (Homo sapiens, UniProt P25103).
T1 construct: human lymphoblasts IM-9 specifically expressing the NK1 receptor; endogenous in cells; host or cells: IM-9 human lymphoblasts
In words: Affinity for the human NK1 receptor on IM-9 lymphoblasts. In kind it is binding. The conditions noted are these: human lymphoblasts IM-9 expressing NK1. An excerpt: (§1) The affinity for the human receptors NK1 and NK2 was studied on the human lymphoblasts IM-9 specifically expressing the NK1 receptor as described by D. G. PAYAN et al. (J. Biol. Chem. 1986, 261, 14321-14329)and on CHO-K1 cells transfected with the NK2 receptor based on the "CellPhect transfection" kit (Pharmacia).

The next data set concerns the target T2, human receptors NK2 (Homo sapiens, UniProt P21452).
T2 construct: expressed in transfected cells; host or cells: CHO-K1
T2 sequence (P21452 1-398): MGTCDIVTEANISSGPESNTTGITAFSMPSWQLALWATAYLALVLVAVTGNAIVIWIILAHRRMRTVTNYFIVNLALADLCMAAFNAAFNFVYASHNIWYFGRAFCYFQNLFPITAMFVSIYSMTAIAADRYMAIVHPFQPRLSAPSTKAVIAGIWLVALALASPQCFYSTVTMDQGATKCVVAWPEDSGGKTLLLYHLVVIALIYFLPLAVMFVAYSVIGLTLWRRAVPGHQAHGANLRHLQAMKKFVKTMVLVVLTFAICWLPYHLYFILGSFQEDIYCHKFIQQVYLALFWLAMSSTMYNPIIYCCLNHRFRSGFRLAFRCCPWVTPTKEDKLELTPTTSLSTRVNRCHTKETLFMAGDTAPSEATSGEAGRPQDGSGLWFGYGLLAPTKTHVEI
In words: Affinity for the human NK2 receptor on transfected CHO-K1 cells. The class given is binding. The following applies: CHO-K1 cells transfected with NK2 receptor.
Source text: as §1

The next data set concerns the target T3, NK1 receptors (Oryctolagus cuniculus, UniProt G1SEI7).
T3 construct: three preparations isolated from smooth muscle were used; from tissue; host or cells: rabbit vena cava
The data set can be described thus: Isolated smooth muscle: rabbit vena cava (RVC), NK1-mediated contraction. In kind it is biochemical. The source says:
(§2) In order to evaluate the functional activity of the compounds of the invention as antagonists of neurokinins, three preparations isolated from smooth muscle were used: rabbit vena cava (RVC), endothelium-free rabbit pulmonary artery (RPA) and rat portal vein (RatPV) whose contractile responses are respectively mediated by the NK1, NK2 and NK3 receptors as indicated by D. JUKIC et al. (Life Sci. 1991, 49, 1463-1469).
(§3) The antagonistic power of the compounds of the invention was expressed in the form of pA2 as defined by O. […] and H. O. SCHILD (Brit. J. Pharmacol. 1959, 14, 48-58).

The target of a further data set is T4, NK2 receptors (Oryctolagus cuniculus, UniProt P79218).
T4 construct: three preparations isolated from smooth muscle were used; from tissue; host or cells: endothelium-free rabbit pulmonary artery
T4 sequence (P79218 1-384): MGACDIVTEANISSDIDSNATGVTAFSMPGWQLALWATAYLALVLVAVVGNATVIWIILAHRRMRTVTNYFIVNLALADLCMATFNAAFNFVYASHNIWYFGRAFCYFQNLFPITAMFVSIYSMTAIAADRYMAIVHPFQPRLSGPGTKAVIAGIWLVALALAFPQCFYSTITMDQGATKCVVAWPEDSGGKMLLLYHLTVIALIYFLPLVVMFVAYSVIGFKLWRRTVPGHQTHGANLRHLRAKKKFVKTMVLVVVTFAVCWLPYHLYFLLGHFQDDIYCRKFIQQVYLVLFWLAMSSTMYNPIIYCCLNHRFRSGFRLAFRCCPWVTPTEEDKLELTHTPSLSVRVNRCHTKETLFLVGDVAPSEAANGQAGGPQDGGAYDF
In words: Isolated smooth muscle: endothelium-free rabbit pulmonary artery (RPA), NK2-mediated contraction. In kind it is biochemical.
Source text: as §2, §3

A further data set concerns the target T5, NK3 receptors (Rattus norvegicus, UniProt P16177).
T5 construct: three preparations isolated from smooth muscle were used; from tissue; host or cells: rat portal vein
T5 sequence (P16177 1-452): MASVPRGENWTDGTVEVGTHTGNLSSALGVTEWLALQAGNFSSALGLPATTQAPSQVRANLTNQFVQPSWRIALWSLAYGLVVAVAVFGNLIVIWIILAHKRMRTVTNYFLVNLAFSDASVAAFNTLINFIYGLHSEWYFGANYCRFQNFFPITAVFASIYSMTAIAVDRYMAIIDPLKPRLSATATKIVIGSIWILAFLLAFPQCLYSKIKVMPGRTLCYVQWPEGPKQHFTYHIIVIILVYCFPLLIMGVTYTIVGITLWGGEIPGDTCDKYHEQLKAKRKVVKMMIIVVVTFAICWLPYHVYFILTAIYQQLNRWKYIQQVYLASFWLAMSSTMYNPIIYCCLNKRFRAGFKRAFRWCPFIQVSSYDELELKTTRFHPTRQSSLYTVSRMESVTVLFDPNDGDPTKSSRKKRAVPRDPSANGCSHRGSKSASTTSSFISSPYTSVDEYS
In words: Isolated smooth muscle: rat portal vein (RatPV), NK3-mediated contraction. The class given is biochemical.
Source text: as §2, §3

Another data set concerns mice (CD1 male). In words: animal or person. The class given is in vivo. The following applies: iv.
The test system of the next data set is guinea pigs. In words: Inhibition of plasma extravasation induced by substance P in guinea pig bladder. In kind it is in vivo. The conditions noted are these: 0.1 mg/kg intravenously 5 minutes before substance P (1 μg/kg iv). As to the method: The effect of the compounds on plasma extravasation caused by intravenous injection of substance P (1 μg/kg) in guinea pigs was evaluated on the bladder, according to the method described for rats by C. GARRET et al. (Proc. Natl. Acad. Sci., USA 1991, 88, 10208-20212). Vesical accumulation of Evans blue injected IV at the same time as substance P and 10 minutes before sacrificing, was quantified by spectrophotometry after extraction of the colorant with acetone. The inhibitory activity of the compounds administered intravenously 5 minutes before substance P was expressed as % inhibition compared with a control batch (8 animals per batch).

In a further data set the test system is male Hartley guinea pigs. In words: Inhibition of bronchoconstriction induced by substance P in guinea pigs. In kind it is in vivo. The conditions noted are these: dose of 1 μmol/kg i.v. As to the method: The study is carried out on male Hartley guinea pigs (Charles River) of a mean weight of 300 to 400 g. […] The animals were pretreated with pyrilamine (1 mg/kg iv), propanolol (1 mg/kg iv). The criterion for assessing the bronchoconstriction is the increase in the tracheal insufflation pressure (TIP) induced by the injection of substance P via the iv route at the dose of 2 nM/kg iv, each animal being its own control. The injection of the test product being carried out relative to the time TO injection of the product. The results are expressed as percentage inhibition of the substance P-induced bronchoconstriction, this percentage being calculated according to the following formula: (ΔTIP before product-ΔTIP after product)/ΔTIP before product (expressed as percentage).

Data set [1] has as its system peritoneal mast cells of male rats. In words: Mast cell degranulation in vitro (histamine release). In kind it is cell-based. The conditions noted are these: rat peritoneal mast cells, 20 min incubation, up to the concentration of 10^-4 M. How it is done:
The studies are carried out on peritoneal mast cells of male rats: Sprague-Dawley of mean weight 350 to 400 g and are killed by euthanasia by inhalation of CO2. A peritoneal lavage is carried out with 20 ml of buffer (NaCl 150 mM, KCl 2.7 mM, CaCl2, 0.9 mM, Na2 HPO4, 3 mM, KH2 PO4, 3.5 mM, glucose 5.6 mM, bovine serum albumin 1 mg/ml, pH 6.8).
The lavage liquid is centrifuged at 400 g for 10 min at 4° C. and taken up in a buffer at a density of 2×10^4 mast cells/mi. The compounds are incubated at an increasing concentration for 20 min. The reaction is stopped by placing the tubes on ice and a centrifugation is carried out with 700 g for 10 min at 4° C. The supernatant and the pellet are tested by fluorimetry after condensation with o-phthaldehyde. The histamine released from the cells into the supernatant thus assayed is expressed as percentage of the total histamine content of the cells.

Structures can show the parent of a compound that is named as a salt. Some results are limits rather than exact numbers.

T3 sequence (G1SEI7 1-407): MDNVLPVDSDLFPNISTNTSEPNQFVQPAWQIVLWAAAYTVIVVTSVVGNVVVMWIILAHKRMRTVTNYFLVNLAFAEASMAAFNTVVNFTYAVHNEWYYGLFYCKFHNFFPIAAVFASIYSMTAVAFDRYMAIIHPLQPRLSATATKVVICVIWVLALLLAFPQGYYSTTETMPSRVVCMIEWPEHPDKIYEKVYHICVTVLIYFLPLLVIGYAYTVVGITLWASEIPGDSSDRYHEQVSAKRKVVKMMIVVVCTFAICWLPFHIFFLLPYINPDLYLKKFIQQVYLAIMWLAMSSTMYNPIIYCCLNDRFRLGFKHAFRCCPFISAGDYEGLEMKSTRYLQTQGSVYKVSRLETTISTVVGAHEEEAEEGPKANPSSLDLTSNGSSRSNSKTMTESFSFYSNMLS
T1 sequence (P25103 whole entry): as the sequence (G1SEI7 1-407) above, with F12S, D189N, A369P, E371D, N376T, G386C, N391D, Y402S, M405V counted along it

On to `CN(Cc1ccccc1)C(=O)C(CC1CCc2ccccc2C1)NC(=O)C1CC(O)CN1C(=O)c1cn(CCCCc2nn[n-]n2)c2ccccc12.[K+]` (mixture of isomers) [Example 3, {1-[4-(1H-tetrazol-5-yl)butyl]indol-3-yl}carbonyl-Hyp-Thn-NMeBzl, potassiu m salt], for which the figures for the Ki at human receptors NK1 and on human receptors NK2 were 14 nM and 1400 nM, respectively. Besides, the “NK1 (VCL) pA2” value on NK1 receptors came out at 7.87. For the same compound, at NK2 receptors, the “NK2 (APL) pA2” value was found to be 5.87. For the same compound, the “NK3 (VPR) pA2” value on NK3 receptors was found to be 5.87.

Turning to `CN(Cc1ccccc1)C(=O)C(Cc1ccc2ccccc2c1)NC(=O)C1CC(O)CN1C(=O)c1cn(CCCCc2nn[n-]n2)c2ccccc12.[K+]` (stereo not drawn) [Example 1, {1-[4-(1H-tetrazol-5-yl)butyl]indol-3-yl}carbonyl-Hyp-Nal-NMeBzl, potassiu m salt], the affinity on human receptors NK2, expressed as Ki, was 2400 nM. Besides, the “NK1 (VCL) pA2” value on NK1 receptors is 9.57. Further, the “NK2 (APL) pA2” value at NK2 receptors came to 5.57. Besides, the “NK3 (VPR) pA2” value on NK3 receptors came out at 4.96. Moreover, in the data set with mice (CD1 male) (mouse, in vivo), the “ED50 (dose which increases the reaction time by 50%)” value amounted to 0.018 mg/kg. In the data set on guinea pigs, the “% inhibition of substance P-induced plasma extravasation (bladder)” value is reported as 56%. The “% Inhibition of substance P-induced bronchoconstriction” value with male Hartley guinea pigs was 95%. The “Mast cell degranulation (histamine release)” value in data set [1] is “does not cause mast cell degranulation”.

As for `CN(Cc1ccccc1)C(=O)C(Cc1ccc2c(c1)CCCC2)NC(=O)C1CC(O)CN1C(=O)c1cn(CCCCc2nn[n-]n2)c2ccccc12.[K+]` (stereo not drawn) [Example 2, {1-[4-(1H-tetrazol-5-yl)butyl]indol-3-yl}carbonyl-Hyp-Tna-NMeBzl, potassiu m salt], the Ki at human receptors NK1 was determined as 14 nM; on human receptors NK2 it was 3600 nM. Also, the “NK1 (VCL) pA2” value at NK1 receptors was 8.17. The “NK2 (APL) pA2” value on NK2 receptors is recorded as 6.47. The “NK3 (VPR) pA2” value on NK3 receptors stood at 5.87.

Consider `CN(Cc1ccccc1)C(=O)C(Cc1ccc2ccccc2c1)NC(=O)C1CC(O)CN1C(=O)c1cn(Cc2nn[n-]n2)c2ccccc12.[K+]` (stereo not drawn) [Example 4, {1-[(1H-tetrazol-5-yl)methyl]indol-3-yl}carbonyl-Hyp-Nal-NMeBzl,potassium salt], for which the inhibitory constant (Ki) at human receptors NK1 is 0.78 nM; on human receptors NK2 it was > 1000 nM. The “NK1 (VCL) pA2” value at NK1 receptors is on record as 8.14. Moreover, the “NK3 (VPR) pA2” value on NK3 receptors is 5.84. For the same compound, in the data set with male Hartley guinea pigs, the “% Inhibition of substance P-induced bronchoconstriction” value worked out at 61%.

With `CN(Cc1ccccc1)C(=O)C(Cc1ccc2ccccc2c1)NC(=O)C1CC(O)CN1C(=O)c1cn(CCc2nn[nH]n2)c2ccccc12` (stereo not drawn) [Example 5, {1-[2-(1H-tetrazol-5-yl)ethyl]indol-3-yl}carbonyl-Hyp-Nal-NMeBzl, potassiu m salt], the Ki on human receptors NK1 was 0.63 nM; at human receptors NK2 it was > 10000 nM.

For `CN(Cc1ccccc1)C(=O)C(Cc1ccc2ccccc2c1)NC(=O)C1CC(O)CN1C(=O)c1cn(CCCc2nn[n-]n2)c2ccccc12.[K+]` (stereo not drawn) [Example 6, [1-[3-(1H-tetrazol-5-yl)propyl]indol-3-yl}carbonyl-Hyp-Nal-NMeBzl, potassium salt], the Ki on human receptors NK1 is 1.2 nM; on human receptors NK2, > 1000 nM. At NK1 receptors, the “NK1 (VCL) pA2” value was 8.46. Moreover, the “NK2 (APL) pA2” value on NK2 receptors is on record as 5.20. Besides, the “% Inhibition of substance P-induced bronchoconstriction” value in the data set on male Hartley guinea pigs was 60%.

On to `CN(Cc1ccccc1)C(=O)C(Cc1ccc2ccccc2c1)NC(=O)C1CC(O)CN1C(=O)c1cn(CCCCCc2nn[n-]n2)c2ccccc12.[K+]` (stereo not drawn) [Example 7, {1-[5-(1H-tetrazol-5-yl)pentyl]indol-3-yl}carbonyl-Hyp-Nal-NMeBzl, potassium salt], for which the Ki at human receptors NK1 worked out at 5.9 nM; on human receptors NK2, 10000 nM. Further, on NK1 receptors, the “NK1 (VCL) pA2” value is listed as 7.88. For the same compound, the “% Inhibition of substance P-induced bronchoconstriction” value with male Hartley guinea pigs amounted to 58%.

Regarding `CN(Cc1ccccc1)C(=O)C(Cc1cccs1)NC(=O)C1CC(O)CN1C(=O)c1cn(CCCCc2nn[nH]n2)c2ccccc12` (stereo not drawn) [Example 8, {1-[4-(1H-tetrazol-5-yl)butyl]indol-3-yl}carbonyl-Hyp-Thi-NMeBzl, potassiu m salt], the inhibition constant Ki on human receptors NK1 is 110 nM; on human receptors NK2, > 1000 nM.

`CN(Cc1ccccc1)C(=O)C(Cc1ccc(Cl)cc1)NC(=O)C1CC(O)CN1C(=O)c1cn(CCCCc2nn[nH]n2)c2ccccc12` (stereo not shown) [Example 9, {1-[4-(1H-tetrazol-5-yl)butyl]indol-3-yl}carbonyl-Hyp-(4-chloro)Phe-NMeBz potassium salt]: the Ki at human receptors NK1 stood at 22 nM; on human receptors NK2, 3900 nM.

In the case of `COc1ccc(CC(NC(=O)C2CC(O)CN2C(=O)c2cn(CCCCc3nn[nH]n3)c3ccccc23)C(=O)N(C)Cc2ccccc2)cc1OC` (stereo not shown) [Example 10, {1-[4-(1H-tetrazol-5-yl)butyl]indol-3-yl}carbonyl-Hyp-(3,4-dimethoxy)Phe-NMeBzl, potassium salt], the Ki on human receptors NK1 was 180 nM; at human receptors NK2, > 10000 nM.

Turning to `CN(Cc1ccccc1)C(=O)C(CC1CCCCC1)NC(=O)C1CC(O)CN1C(=O)c1cn(CCCCc2nn[nH]n2)c2ccccc12` (stereo not drawn) [Example 11, {1-[4-(1H-tetrazol-5-yl)butyl]indol-3-yl}carbonyl-Hyp-Cha-NMeBzl, potassium salt], the inhibition constant Ki on human receptors NK1 was 52 nM; on human receptors NK2 it was > 1000 nM.

Take `CN1CC[C@]23c4c5ccc(O)c4O[C@H]2[C@@H](O)C=C[C@H]3[C@H]1C5` [morphine, reference compound]: in the data set on mice (CD1 male) (Mus musculus, read-out: ED50 (dose which increases the reaction time by 50%)), the 50% effective dose (ED50) came to 0.3 mg/kg.
